Patent US10633395B2, “Aryloxazolidinone antibiotic compounds” (Idorsia Pharmaceuticals Ltd., priority 2017, dated 2020)
In brackets after ≈: the same amount, converted by molar mass.

How the values were obtained:
[1] = test system: CYP3A4, CYP2C9 and CYP2D6 (lowest IC50 of the isoforms measured); assay: Cytochrome P450 inhibition in human liver microsomes; type: in vitro ADME; details: lowest of isoforms 3A4, 2C9 and 2D6, 0-100 μM test compound, read-out: CYP450 lowest IC50 of the isoenzymes measured
Protocol: Cytochrome P450 inhibition: The objective of this in vitro assay was to assess potential inhibition of the human cytochrome P450 (CYP450) isoforms 3A4, 2C9 and 2D6 using human liver microsomes and isoform-specific marker reactions. […] This may affect plasma levels in vivo and potentially lead to adverse drug reactions or toxicity. Technically, specific marker-substrate of P450 enzymes were incubated with human liver microsomes in the presence/absence of a test compounds. The inhibition effect of the test compound towards the marker reaction was determined in incubations containing 0-100 μM of the test compound. The inhibitory effect was determined by the impact of the different compound concentrations towards the metabolite formation of the marker reaction. Formation of the metabolites was determined by LC-MS analysis. Metabolic stability of the compounds according to the present invention (inv.) and reference compounds (ref.) in human liver microsomes and inhibition of the human cytochrome P450 (CYP450) isoforms 3A4, 2C9 and 2D6 are given in Table 4 hereafter.

CHO cells = assay: Genetic toxicology: in vitro micronuclei formation in CHO cells; type: cell-based, Chinese hamster; details: 24 h treatment, ratio versus untreated cells
Protocol: Genetic toxicology testing of compounds to assess their ability to cause DNA damage was done in vitro in mammalian cell assays (CHO cells). The formation of micronuclei, small DNA-staining particles outside of the nucleus, was investigated in mononucleated and binucleated cells treated with increasing concentrations of a test compound for 24 h. DNA was stained with Hoechst 33342 (Mutat Res. 630:1-13, 2007), read with a high-content screening microscope (Opera Phenix, Perkin Elmer) and scored with an optimized algorithm using Harmony. Micronucleii associated with valid cells were enumerated and induction of micronuclei formation tabulated as ratio versus untreated cells if the fraction of valid cells was ≥0.2.
Genetic toxicity potential of the compound of Example 1 according to the present invention (inv.) and reference compounds (ref.) was assessed and the corresponding test results are given in Table 3 hereafter.

[2] = test system: Klebsiella pneumoniae A-651; assay: Bacterial growth minimal inhibitory concentration (microdilution), K. pneumoniae A-651; type: cell-based; details: A651, multiply resistant (quinolone-resistant) strain, cation-adjusted Mueller-Hinton Broth
Protocol: (§1) Bacterial growth minimal inhibitory concentrations: Minimal inhibitory concentrations (MICs; mg/L) were determined in cation-adjusted Mueller-Hinton Broth by a microdilution method following the description given in “Methods for Dilution Antimicrobial Susceptibility Tests for Bacteria that Grow Aerobically”, Approved standard, 7th ed., Clinical and Laboratory Standards Institute (CLSI) Document M7-A7, Wayne, Pa., USA (2006).
(§2) The compound of Example 1 according to the present invention (inv.) and reference compounds 4 (ref.) to 9 (ref.) were tested against several Gram-positive and Gram-negative bacteria. Staphylococcus aureus A798 is a multiply resistant strain (in particular quinolone-resistant), Klebsiella pneumoniae A-651 is a multiply resistant strain (in particular quinolone-resistant), while E. coli ATCC25922 and P. aeruginosa ATCC27853 are quinolone-sensitive strains. The corresponding antibacterial test results are given in Table 1 hereafter (MICs in mg/L).

[3] = Metabolic stability: intrinsic clearance in human liver microsomes; type: in vitro ADME; details: 1 μM compound, up to 45 minutes
Protocol: Metabolic stability: Subcellular liver fractions and primary hepatocytes from different species were used to determine the in vitro intrinsic clearance of a compound in various species. The liver microsomal and hepatocytes in vitro half-life approach can be a suitable approach to measure intrinsic clearance in vitro, which can be scaled up to the in vivo situation and used in the prediction of human clearance (Obach et al., 1997). For this approach, […] were incubated for up to 45 minutes in subcellular liver fractions or 2 h in primary hepatocytes at final compound concentration of 1 μM. Disappearance of parent compound was determined by LC-MS analysis and intrinsic clearance calculated from the slope of compound disappearance thereof.
Metabolic stability of the compounds according to the present invention (inv.) and reference compounds (ref.) in human liver microsomes and inhibition of the human cytochrome P450 (CYP450) isoforms 3A4, 2C9 and 2D6 are given in Table 4 hereafter.

E. coli ATCC25922 = assay: Bacterial growth minimal inhibitory concentration (microdilution), E. coli ATCC25922; type: cell-based; details: Escherichia coli, quinolone-sensitive strain, cation-adjusted Mueller-Hinton Broth
Protocol: as §1, §2

P. aeruginosa ATCC27853 = assay: Bacterial growth minimal inhibitory concentration (microdilution), P. aeruginosa ATCC27853; type: cell-based; details: Pseudomonas aeruginosa, quinolone-sensitive strain, cation-adjusted Mueller-Hinton Broth, read-out: MIC for P. aeruginosa AT0027853
Protocol: as §1, §2

[4] = test system: Staphylococcus aureus A798; assay: Bacterial growth minimal inhibitory concentration (microdilution), S. aureus A798; type: cell-based; details: multiply resistant (quinolone-resistant) strain, cation-adjusted Mueller-Hinton Broth
Protocol: as §1, §2

wild-type E. coli A-1261 = assay: MIC against wild-type E. coli A-1261 with or without alkaline phosphatase or esterase (prodrug activation); type: cell-based; details: for MIC for E. coli A-1261 In the presence of an alkaline phosphatase (2 i.U./mL): alkaline phosphatase from bovine intestinal mucosa; for MIC for E. coli A-1261 In the presence of an esterase (10 i.U./mL): esterase from porcine liver; for MIC for E. coli A-1261 In the absence of alkaline phosphatase and esterase: no alkaline phosphatase, no esterase
Protocol: as §1
The compounds of Examples 2 and 3 of the present invention (inv.) were tested against wild-type E. coli A-1261 in the presence of alkaline phosphatase (from bovine intestinal mucosa: Sigma P6774-2KU; Lot: SLBB1168) or esterase (from porcine liver: Sigma E2884-5KU; Lot: 129K7010V), and in the absence of an alkaline phosphatase and esterase. The corresponding antibacterial test results are given in Table 2 hereafter (MICs in mg/L).

| Structure (SMILES) | IC50 [1] | Maximal induction of micronuclei formation normalized vs. background (CHO cells) | MIC [2] | Intrinsic clearance in human liver microsomes [3] | MIC (E. coli ATCC25922) | MIC (P. aeruginosa ATCC27853) | MIC [4] | MIC for E. coli A-1261 In the presence of an alkaline phosphatase (2 i.U./mL) (wild-type E. coli A-1261) | MIC for E. coli A-1261 In the presence of an esterase (10 i.U./mL) (wild-type E. coli A-1261) | MIC for E. coli A-1261 In the absence of alkaline phosphatase and esterase (wild-type E. coli A-1261) |
| --- | --- | --- | --- | --- | --- | --- | --- | --- | --- | --- |
| O=C1COc2ccc(N3C[C@H](CCCN[C@@H]4Cn5c(=O)ccc6cccc4c65)OC3=O)nc2N1 [Example 1, (S)-1-{3-[(S)-2-oxo-3-(3-oxo-3,4-dihydro-2H-pyrido[3,2-b][1,4]oxazin-6-yl)-oxazolidin-5-yl]-propylamino}-1,2-dihydro-pyrrolo[3,2,1-ij]quinolin-4-one] | > 50 µM | 2.5 | 0.5 µg/mL (≈ 1.08 µM) | 15 μL/min * mg microsomal protein | 0.25 µg/mL (≈ 0.542 µM) | 1 µg/mL (≈ 2.17 µM) | 0.031 µg/mL (≈ 0.0672 µM) |  |  |  |
| O=C1COc2ccc(N3C[C@H](CCCN(C(=O)OCOP(=O)(O)O)[C@@H]4Cn5c(=O)ccc6cccc4c65)OC3=O)nc2N1 [Example 2] |  |  |  |  |  |  |  | 0.25 µg/mL | >8 µg/mL | >8 µg/mL |
| O=C1COc2ccc(N3C[C@H](CCCN(C(=O)OCOC(=O)CCc4ccccc4OP(=O)(O)O)[C@@H]4Cn5c(=O)ccc6cccc4c65)OC3=O)nc2N1 [Example 3] |  |  |  |  |  |  |  | 0.25 µg/mL | 1 µg/mL | >8 µg/mL |
